Where a SMILES comes first, the peptide text is derived from it. Side-chain parts run from the residue outwards. [ ]: non-standard residue; d: D form. The star is where a group is joined. Pteroyl = Nc1nc2ncc(CNc3ccc(C(=O)*)cc3)nc2c(=O)[nH]1; Cha = N[C@@H](CC1CCCCC1)C(=O)O; dCha = N[C@H](CC1CCCCC1)C(=O)O
Legend:
Assay type in all cases: cell-based, human
SK-OV-3 cells = assay: Cell viability assay (CellTiter-Blue), SK-OV-3 cells; details: 2 × 10^4 cells per well, medium + 10% FBS, 1% DMSO, 24 h at 37 °C, then CellTiter-Blue 4 h, three biological replicates fitted in Origin, standard error in brackets
Description: (§1) KB and MCF7 cells were kindly gifted by Prof. Arwyn T. Jones (Cardiff University), HEK293 cells were purchased from Public Health England, and SK-OV-3 cells were purchased from National Collection of Authenticated Cell Cultures (https://cell-bank.org.cn/). Cells were routinely tested for mycoplasma infection. KB and SK-OV-3 cells were maintained in T75 flasks at 37 °C in a 5% CO2 atmosphere in folic acid-depleted Roswell Park Memorial Institute (RPMI)-1640 medium supplemented with 10% (v/v) fetal bovine serum (FBS). MCF7 and HEK293 cells were maintained in T75 flasks at 37 °C in a 5% CO2 atmosphere in Dulbecco’s Modified Eagle’s medium (DMEM) supplemented with 10% (v/v) FBS. Cells were maintained at a sub-confluent monolayer and split at 80–85% confluency. For splitting, cells were washed with PBS, trypsinized in 1 mL of trypsin, and 200 µL of the 1000 µL trypsin cell suspension was re-suspended in 12 mL fresh DMEM containing 10% (v/v) FBS in a new T75 flask. KB and SK-OV-3 cells were used for biological experiments after being maintained for at least 10 days in folic acid-depleted RPMI-1640 medium.
(§2) SK-OV-3, MCF7, and HEK293 cells were seeded at a density of 2 × 10^4 cells per well in a Nunc™ MicroWell™ 96-well plate and grown at 37 °C in a 5% CO2 atmosphere in DMEM supplemented with 10% (v/v) FBS for 24 h. KB cells were seeded at a density of 7 × 10^3 cells per well in a 96-well plate and grown at 37 °C in a 5% CO2 atmosphere in folic acid-depleted RPMI-1640 medium supplemented with 10% (v/v) FBS for 24 h. Stock solutions of compounds 2–6 and 11–13 were obtained by dissolving the compounds in sterile deionized water. Compounds 1, and 7–10 were dissolved in pure DMSO. The stock solutions were diluted into the proper medium (according to the cell line tested) supplemented with 10% FBS to the appropriate concentration, and cells in each well were incubated with 100 µL of the solution. The solutions in each well were then adjusted to a concentration of 1% (v/v) DMSO. After 24 h at 37 °C, 20 µL of CellTiter-Blue™ was added to each well. The plate was incubated for another 4 h at 37 °C before analysis on a Perkin Elmer Victor X plate reader (excitation 531 nm; emission 595 nm). Each data point was calculated from a minimum of nine values resulting from three biological replicates (i.e., cells split from three different passages); each biological replicate is calculated from three technical replicates (i.e., cells split from the same passage). Value from media-only with CellTiter-Blue™ was set at 0% viability. This value was then subtracted from the values from cell-only (i.e., non-treated) wells with CellTiter-Blue™ in each biological replicate and set as 100% viability. For treatments of Cy3-containing compounds, blanks were generated with cell-free wells containing the compounds incubated for 24 h before addition of CellTiter-Blue™. The fluorescent reading for these wells was deducted from the treatment readings. Dose-response fitting curves were generated using Origin, version 2019b, OriginLab Corporation, Northampton, MA, USA (Figures S21–S24, Supplementary Materials).
(§3) Comparison of cytotoxicity fitting curves was achieved by applying the extra sum-of-squares F test, performed using GraphPad Prism version 9 for Windows, GraphPad Software, La Jolla, California, USA (https://www.graphpad.com/). […] Statistical analysis on the flow cytometry data was achieved by applying the unpaired two-tailed t-test test, performed using GraphPad Prism version 9 for Windows, GraphPad Software, La Jolla California USA, USA (https://www.graphpad.com/).
(§4) Cytotoxicity of 1–13 was evaluated using the CellTiter-Blue assay on KB, MCF7, SK-OV-3, and HEK293 cells. KB cells are derived from human cervical cancer, while SK-OV-3 cells are derived from human ovarian cancer. […] This feature is of particular relevance in anticancer applications, as it can be exploited for selective targeting and delivery. […]

HEK293 cells = assay: Cell viability assay (CellTiter-Blue), HEK293 cells; details: 2 × 10^4 cells per well, DMEM + 10% FBS, 1% DMSO, 24 h at 37 °C, then CellTiter-Blue 4 h, three biological replicates fitted in Origin, standard error in brackets
Description: as §1, §2, §3, §4

KB cells = assay: Cell viability assay (CellTiter-Blue), KB cells; details: 7 × 10^3 cells per well, folic acid-depleted RPMI-1640 + 10% FBS, 1% DMSO, 24 h at 37 °C, then CellTiter-Blue 4 h, three biological replicates fitted in Origin, standard error in brackets
Description: as §1, §2, §3, §4

[1] = system: KB, MCF7, SK-OV-3, and HEK293 cells; assay: Cell viability assay (CellTiter-Blue), statements over all tested cell lines; details: for Selectivity of cytotoxicity between cell lines, in words: folate receptor α-high KB and SK-OV-3 versus MCF7 and HEK293; for Potency (cytotoxicity) in the tested cell lines, in words: extra sum-of-squares F test
Description: as §2, §3
Cytotoxicity of 1–13 was evaluated using the CellTiter-Blue assay on KB, MCF7, SK-OV-3, and HEK293 cells. KB cells are derived from human cervical cancer, while SK-OV-3 cells are derived from human ovarian cancer. […] This feature is of particular relevance in anticancer applications, as it can be exploited for selective targeting and delivery. MCF7 is a cell line derived from human breast cancer with low levels of folate receptor α [27]. Therefore, it can serve as the negative control for folate receptor α mediated tumor-targeted drug delivery systems. HEK293 is a non-cancer cell line and was chosen to evaluate the specificity of the tested compounds toward cancer cells.

MCF7 cells = assay: Cell viability assay (CellTiter-Blue), MCF7 cells; details: for EC50: MCF7 cells, 2 × 10^4 cells per well, DMEM + 10% FBS, 1% DMSO, 24 h at 37 °C, then CellTiter-Blue 4 h, three biological replicates fitted in Origin, standard error in brackets
Description: as §1, §2, §3, §4

[2] = system: mitochondria of SK-OV-3 cells; assay: Confocal microscopy, colocalisation with MitoTracker Green FM, SK-OV-3 cells; details: 10 µM conjugate, 10 min at 37 °C
Description: (§5) SK-OV-3 and MCF7 were seeded at a density of 1 × 10^6 cells per well in glass-bottom culture dishes and grown at 37 °C in a 5% CO2 atmosphere in medium supplemented with 10% (v/v) FBS for 24 h. Cells were washed once with the RPMI-1640 medium supplemented with 10% (v/v) FBS before staining. Compounds 1, 5–10 were diluted into the RPMI-1640 medium supplemented with 10% (v/v) FBS to 10 μM and then added to the culture dishes, respectively. After 10-min incubation at 37 °C, cells were washed with RPMI-1640 medium supplemented with 10% (v/v) FBS. Cells were then treated with 50 nM MitoTracker Green FM and 10 μg/mL Hoechst33258 pre-formulated with RPMI-1640 medium supplemented with 10% (v/v) FBS and then incubated for another 10 min at 37 °C before analysis on ZEISS LSM 900 with Airyscan 2. The results were analyzed using Image J software (Figure 3 and Figures S4–S7 in Supplementary Materials).
(§6) Figure 3 Confocal microscopy images of SK-OV-3 and MCF7 cells treated with Cy3-containing conjugates. Cells were treated with 10 µM of the indicated conjugate for 10 min at 37 °C, washed, stained with 50 nM MitoTracker Green FM and 10 μg/mL Hoechst33258 for 10 min at 37 °C, washed, and imaged at 63X. Pearson’s correlation coefficients of MitoTracker Green FM and Cy3 fluorescence for compounds 1, 5, 6, 7, 8, 9, and 10 in SK-OV-3 and MCF cells are 0.75/0.64, 0.73/0.81, 0.91/0.61, 0.78/0.63, 0.85/0.69, 0.43/0.82, and 0.78/0.60, respectively. Excitation wavelengths for Hoechst33258, MitoTracker Green FM and Cy3 were set as 405, 488, and 561 nm, respectively. Scale bars denote 25 μm. Additional images, including the results of Hoechst33258 staining, are shown in Figure S4 (SK-OV-3 at 20X), Figure S5 (SK-OV-3 at 63X), Figure S6 (MCF7 at 20X) and Figure S7 (MCF7 at 63X), Supplementary Materials.

[3] = system: mitochondria of MCF7 cells; assay: Confocal microscopy, colocalisation with MitoTracker Green FM, MCF7 cells; details: 10 µM conjugate, 10 min at 37 °C
Description: as §5, §6

[4] = KB, SK-OV-3, MCF7 and HEK293 cells, CellTiter-Blue

Row | Structure (SMILES) | EC50 (SK-OV-3 cells) [µM] | EC50 (HEK293 cells) [µM] | EC50 (KB cells) [µM] | Selectivity of cytotoxicity between cell lines, in words [1] | EC50 (MCF7 cells) [µM] | Potency (cytotoxicity) in the tested cell lines, in words [1, 4] | EC50 in MCF7 cells, times higher than in the other tested cell lines (MCF7 cells; MCF7 versus KB, SK-OV-3 and HEK293) | EC50 ([1]; KB, SK-OV-3, MCF7 and HEK293 cells, CellTiter-Blue, 24 h) [µM] | Pearson's correlation coefficient of MitoTracker Green and Cy3 fluorescence ([2]; imaged at 20X) | Pearson's correlation coefficient of MitoTracker Green FM and Cy3 fluorescence ([2]; imaged at 63X) | Pearson's correlation coefficient of MitoTracker Green and Cy3 fluorescence ([3]; imaged at 20X) | Pearson's correlation coefficient of MitoTracker Green FM and Cy3 fluorescence ([3]; imaged at 63X)
1 | CC(=O)N[C@@H](CCCCNC(=O)[C@H](CCC(=O)O)NC(=O)c1ccc(NCc2cnc3nc(N)nc(O)c3n2)cc1)C(=O)N[C@H](CCCCN)C(=O)N[C@H](CC1CCCCC1)C(=O)N[C@H](C)C(=O)N[C@H](CCCCN)C(=O)N[C@@H](CC1CCCCC1)C(=O)N[C@H](C)C(=O)N[C@H](CCCCN)C(=O)N[C@H](CCCCN)C(=O)N[C@@H](CC1CCCCC1)C(=O)N[C@H](C)C(=O)N[C@H](CCCCN)C(=O)N[C@H](CC1CCCCC1)C(=O)N[C@H](C)C(=O)N[C@H](CCCCN)C(N)=O [Compound 13] (Ac-K([Glu-Pteroyl])[dK][dCha][dA][dK][Cha][dA][dK][dK][Cha][dA][dK][dCha][dA][dK]-NH2) | 41.5 | 20.4 | 9.8 | significantly higher | 26.9 |  |  |  |  |  |  | 
2 | CC(=O)N[C@@H](CCCCNC(=O)[C@H](CCC(=O)O)NC(=O)c1ccc(NCc2cnc3nc(N)nc(O)c3n2)cc1)C(=O)N[C@H](CCCCN)C(=O)N[C@H](CC(C)C)C(=O)N[C@H](C)C(=O)N[C@H](CCCCN)C(=O)N[C@H](CC(C)C)C(=O)N[C@H](C)C(=O)N[C@H](CCCCN)C(=O)N[C@H](CCCCN)C(=O)N[C@H](CC(C)C)C(=O)N[C@H](C)C(=O)N[C@H](CCCCN)C(=O)N[C@H](CC(C)C)C(=O)N[C@H](C)C(=O)N[C@H](CCCCN)C(N)=O [Compound 12] | 388 | > 400 | 151 | enhanced toxicity in KB but not in SK-OV-3 cells when compared to MCF7 and HEK293 cells | > 400 |  |  |  |  |  |  | 
3 | C[C@@H](NC(=O)[C@H](CC1CCCCC1)NC(=O)[C@@H](CCCCN)NC(=O)[C@@H](C)NC(=O)[C@@H](CC1CCCCC1)NC(=O)[C@H](N)CCCCN)C(=O)N[C@H](CCCCN)C(=O)N[C@H](CCCCN)C(=O)N[C@@H](CC1CCCCC1)C(=O)N[C@H](C)C(=O)N[C@H](CCCCN)C(=O)N[C@H](CC1CCCCC1)C(=O)N[C@H](C)C(=O)N[C@H](CCCCN)C(N)=O [Compound 4, reference compound] (HELM PEPTIDE1{[dK].[O=C([C@@H](CC1CCCCC1)N[*:1])[*:2]].[dA].[dK].[Cha].[dA].[dK].[dK].[Cha].[dA].[dK].[O=C([C@@H](CC1CCCCC1)N[*:1])[*:2]].[dA].[dK].[am]}$$$$V2.0) | 11.6 | 15.6 | 6.5 |  | 50.9 | good potency in all tested cell lines | 3-8 times |  |  |  |  | 
4 | CC(C)C[C@@H](NC(=O)[C@H](N)CCCCN)C(=O)N[C@H](C)C(=O)N[C@H](CCCCN)C(=O)N[C@H](CC(C)C)C(=O)N[C@H](C)C(=O)N[C@H](CCCCN)C(=O)N[C@H](CCCCN)C(=O)N[C@H](CC(C)C)C(=O)N[C@H](C)C(=O)N[C@H](CCCCN)C(=O)N[C@H](CC(C)C)C(=O)N[C@H](C)C(=O)N[C@H](CCCCN)C(N)=O [Compound 3, reference compound] | > 400 | > 400 | 331 |  | > 400 | least potent amongst the tested compounds |  | > 300 |  |  |  | 
5 | CC(C)C[C@H](NC(=O)[C@H](CCCCN)NC(=O)CCCCC[N+]1=C(/C=C/C=C2\N(C)c3ccccc3C2(C)C)C(C)(C)c2ccccc21)C(=O)N[C@@H](C)C(=O)N[C@@H](CCCCN)C(=O)N[C@@H](CC(C)C)C(=O)N[C@@H](C)C(=O)N[C@@H](CCCCN)C(=O)N[C@@H](CCCCN)C(=O)N[C@@H](CC(C)C)C(=O)N[C@@H](C)C(=O)N[C@@H](CCCCN)C(=O)N[C@@H](CC(C)C)C(=O)N[C@@H](C)C(=O)N[C@@H](CCCCN)C(N)=O [Compound 5] | 11 | 44.3 | 6.7 |  | 7.37 |  |  |  | 0.76 | 0.73 | 0.80 | 0.81
